Test results as given in US20260008818A1, “CYCLIC PEPTIDE OR SALT THEREOF, AND USES THEREOF” (FUJIFILM Corporation, priority 2023, published 2026).
Ends that are not written are not given here.

Columns and labels:
[1] = system: BaF3 cells stably expressing FGFR (human); assay: Cell proliferation-promoting effect on BaF3 cells stably expressing human FGFR; format: cell-based; conditions: BaF3 with human FGFR; viable cells at the addition concentration (0.001 to 10 nmol/L) with largest number; 2 nights
Protocol: (§1) The FGFR phosphorylation ability of the cyclic peptide complex was evaluated using the BaF3 cell proliferation-promoting effect in which FGFR was stably expressed.
(§2) BaF3 cells stably expressing FGFR were established by introducing a vector (human: Gene Copocia, EX-Y2820-M67, bovine: sequence of Accession No. A4IFL5 was introduced into pCDNA3.1/Hygro(+) Mammalian Expression Vector (Thermo, V87020), porcine: sequence of Accession No. A0A8DIE4H1 was introduced into pCDNA3.1/Hygro(+) Mammalian Expression Vector (Thermo, V87020), and avian: sequence of Accession No. P21804 was introduced into pCDNA3.1/Hygro(+) Mammalian Expression Vector (Thermo, V87020)) into which FGFR gene had been incorporated, into BaF3 cells using NucleoFector (Lonza) and performing drug selection of cells into which the FGFR gene had been introduced using hygromycin.
(§3) The evaluation of the proliferation-promoting effect of BaF3 cells in which FGFR is stably expressed was performed by the following method. First, RPMI-1640 with L-Glutamine and Phenol Red (FUJIFILM Wako Pure Chemical Corporation, 189-02025) and Fetal Bovine Serum (Thermo, 10270-106) were mixed at a volume ratio of 9:1, and then heparin (STEM CELL, 07980) was added thereto such that the final concentration thereof was 8 μg/mL, thereby preparing a culture medium for evaluation (hereinafter, described as RPMI (10% FBS) medium). Next, the BaF3 cells in which FGFR had been stably expressed were washed twice with RPMI (10% FBS) culture medium, suspended in RPMI (10% FBS) culture medium in which the cyclic peptide complex had been dissolved to a final concentration of 0.001 to 10 nmol/L, and seeded in a 384-well plate. In this case, a condition in which the cyclic peptide complex was not added as a negative control was prepared. After culturing at 37° C. (5% CO2) for 2 nights, Hoechst 33342, Trihydrochloride, Trihydrate—10 mg/mL Solution in Water (Thermo, H3570), -Cellstain (registered trademark)-Calcein-AM solution (1 mg/mL DMSO solution) (DOJINDO, C396), and -Cellstain (registered trademark)-PI solution (DOJINDO, P378) were each added to RPMI (10% FBS) culture medium in a volume amount of 1/1,000 at the final concentration, and live/dead staining of the cells were performed by allowing to stand at room temperature for 1 hour, and imaging was performed using a confocal microscope (Yokogawa Electric Corporation, CQ1). The number of viable cells was calculated from the imaging data, and the cell proliferation-promoting effect was evaluated according to the following evaluation criteria. The number of viable cells in the negative control was about 20 cells/well. The evaluation result preferably satisfies the evaluation criteria A, B, or C. […]

[2] = system: BaF3 cells stably expressing FGFR (bovine); assay: Cell proliferation-promoting effect on BaF3 cells stably expressing bovine FGFR; format: cell-based; conditions: BaF3 with bovine FGFR; viable cells at the addition concentration (0.001 to 10 nmol/L) with largest number; 2 nights
Protocol: as §1, §2, §3

[3] = system: BaF3 cells stably expressing FGFR (porcine); assay: Cell proliferation-promoting effect on BaF3 cells stably expressing porcine FGFR; format: cell-based; conditions: BaF3 with porcine FGFR; viable cells at the addition concentration (0.001 to 10 nmol/L) with largest number; 2 nights
Protocol: as §1, §2, §3

[4] = system: BaF3 cells stably expressing FGFR (avian); assay: Cell proliferation-promoting effect on BaF3 cells stably expressing avian FGFR; format: cell-based; conditions: BaF3 with avian FGFR; viable cells at the addition concentration (0.001 to 10 nmol/L) with largest number; 2 nights
Protocol: as §1, §2, §3

[5] = Stability of cyclic peptide after alkali treatment, LC; format: physicochemical; conditions: alkali treatment: 0.5 mol/L sodium hydroxide aqueous solution, room temperature, 3 hours
Protocol: In addition, the stability of the cyclic peptide (SEQ ID NO: 382) containing a cysteine residue in the cyclized portion and the cyclic peptide (SEQ ID NO: 374) containing a homocysteine residue in the cyclized portion was compared under the following alkali treatment, which is a more severe condition.
The alkali treatment was performed by the following method. 25 μL of a 0.2 mg/mL cyclic peptide aqueous solution was prepared, 58.8 μL of a 0.5 mol/L sodium hydroxide aqueous solution was added to the aqueous solution, and the mixture was incubated at room temperature for 3 hours to obtain an aqueous solution of the cyclic peptide alkali-treated. The total area of all the peaks in LC/MS of the cyclic peptide before the alkali treatment was set to 100%, and the proportion of the total area of all the peaks in LC/MS of the aqueous solution of the cyclic peptide alkali-treated was determined to calculate the residual rate of the cyclic peptide.
The LC conditions used for the evaluation of molecular stability are the same as those in the measurement of the above-described cyclic peptide treated with a reducing agent.

[6] = system: hMSC-Human Mesenchymal Stem Cells; assay: Effect of maintaining MSC undifferentiated potency (gene expression); format: cell-based
Protocol: The effect of maintaining mesenchymal stem cell (MSC) undifferentiated potency of the cyclic peptide complex was evaluated.
MSC was prepared in the same manner as in Example 7.
The evaluation of the effect of maintaining the MSC undifferentiated potency was performed by the following method. First, a culture medium (hereinafter, referred to as a custom culture medium) in which bFGF was removed from PRIME-XV MSC Expansion XSFM (FUJIFILM Irvine Scientific, Inc., 91149) was prepared. Next, Prime-XV Human Fibronectin (FUJIFILM Irvine Scientific, Inc., 31002) was dissolved in PBS (Fujifilm Wako Pure Chemical Corporation, 164-23551), 2 μg/cm^2 of the solution was added to a 12-well plate used for proliferation, and the 12-well plate was allowed to stand at room temperature for 3 hours to coat the 12-well plate with fibronectin. Thereafter, the MSCs subjected to the subculture were peeled using Tryple Express (Thermo, 12604-013), washed once with a custom culture medium, suspended in a custom culture medium in which a cyclic peptide complex or bFGF (R&D Systems, 3718-GMP) was diluted to final concentrations of 3 nmol/L and 1 nmol/L, and seeded on a 12-well plate coated with fibronectin. In this case, conditions in which the cyclic peptide complex and bFGF were not added as a negative control were prepared. After culturing at 37° C. (5% CO2) for 2 nights, the culture medium was replaced by removing the supernatant of the culture medium and adding the same amount of a culture medium prepared to have the same composition as the removed culture medium. After further culturing at 37° C. (5% CO2) for 2 nights, RNA was extracted using an RNeasy Plus Mini Kit (Qiagen, 74136) according to the manufacturer's protocol. […] The expression level of each gene was normalized by setting the expression level of the well to which 1 nmol/L bFGF was added to 1.

[7] = 1 nmol/L bFGF versus condition without bFGF (negative control)

Row | Substance | Evaluation result of cell proliferative properties Human [1] | Evaluation result of cell proliferative properties Bovine [2] | Evaluation result of cell proliferative properties Porcine [3] | Evaluation result of cell proliferative properties Avian [4] | residual rate of the cyclic peptide [5] [%] | expression level of Nanog [6, 7] | expression level of Oct4 [6, 7] | expression level of Sox2 ([6]; cyclic peptide complex 3 nmol/L or bFGF 1 nmol/L, normalized to 1 nmol/L bFGF = 1, bFGF compared with negative control)
1 | 396 (CSYERLQFHGHEAPFRVKVCSYERLQFHGHEAPFRVKV; also: cyclic peptide) [compound 396] | A (The number of viable cells is 400 cells/well or more.) | A (The number of viable cells is 400 cells/well or more.) | B (The number of viable cells is 200 cells/well or more and less than 400 cells/well.) | A (The number of viable cells is 400 cells/well or more.) |  |  |  | 
2 | H-(C)-SYERLQFHGHEAPFRV-(K(acetyl))-VKKK [SEQ ID NO: 382] |  |  |  |  | 26 |  |  | 
3 | H-(Hcy)-SYERLQFHGHEAPFRV-(K(acetyl))-VKKK [SEQ ID NO: 374] |  |  |  |  | 32 |  |  | 
4 | bFGF: basic fibroblast growth factor (R&D Systems, 3718-GMP) |  |  |  |  |  | did not change substantially | did not change substantially | changed
5 | 392 (HCSYERLQFHGHEAPFRVKVHCSYERLQFHGHEAPFRVKV; also: cyclic, closure not given here) [compound 392] | A (The number of viable cells is 400 cells/well or more.) | A (The number of viable cells is 400 cells/well or more.) | B (The number of viable cells is 200 cells/well or more and less than 400 cells/well.) | B (The number of viable cells is 200 cells/well or more and less than 400 cells/well.) |  |  |  | 
6 | 391 (HCSYERLQFHGHEAPFRVKVGHCSYERLQFHGHEAPFRVKV; also: cyclic, closure not given here) [compound 391] | A (The number of viable cells is 400 cells/well or more.) | A (The number of viable cells is 400 cells/well or more.) | B (The number of viable cells is 200 cells/well or more and less than 400 cells/well.) | A (The number of viable cells is 400 cells/well or more.) |  |  |  | 
7 | 395 (CSYERLQFHGHEAPFRVKVCSYERLQFHGHEAPFRVKV; also: cyclic, closure not given here) [compound 395] | B (The number of viable cells is 200 cells/well or more and less than 400 cells/well.) | A (The number of viable cells is 400 cells/well or more.) | B (The number of viable cells is 200 cells/well or more and less than 400 cells/well.) | B (The number of viable cells is 200 cells/well or more and less than 400 cells/well.) |  |  |  | 
